Reference: patent US20050107386A1, “Methods of treating diseases and disorders by targeting multiple kinases” (priority 2003, published 2005)

Columns and labels:
Format in all cases: biochemical
Rsk3(h) = Rsk3(h) (Homo sapiens, UniProt Q15349); assay: Rsk3(h) kinase assay; settings: 3 μM; percent of control kinase activity
Protocol: (§1) Six compounds (presumptive single agents) were tested against a panel of 50 kinases. The results are presented in Table 2; numbers for each kinase indicate the percent of control kinase activity in the presence of a 3μM concentration of the indicated agent.
(§2) Agents that target two or more different kinases are useful in the methods of the invention as described elsewhere herein. Such compounds may be identified, and their effect on certain kinases may be identified, using the assays briefly described below in Examples 4-83. Each of these assays was carried out as described in Davies et al., Biochem. J., 351:95-105 (2000). All assays were carried out at 10 μM ATP unless otherwise noted.
(§3) In a final reaction volume of 25 μl, Rsk3 (h) (5-10 mU) is incubated with 8 mM MOPS pH 7.0, 0.2 mM EDTA, 30 μM […] (SEQ ID NO:11), 10 mM MgAcetate and [γ-^33P-ATP] (specific activity approx. 500 cpm/pmol, concentration as required). The reaction is initiated by the addition of Mg^2+ [γ-^33P-ATP]. After incubation for 40 minutes at room temperature, the reaction is stopped by the addition of 5 μl of a 3% phosphoric acid solution. 10 μl of the reaction is then spotted onto a P30 filtermat and washed three times for 5 minutes in 75 mM phosphoric acid and once in methanol prior to drying and scintillation counting.

Yes(h) = Yes(h) (Homo sapiens, UniProt P07947); assay: Yes(h) kinase assay; settings: for Inhibitory activity (% of control), Yes(h): 3 μM, percent of control kinase activity
Protocol: as §1, §2
(§4) In a final reaction volume of 25 μl, Yes(h) (5-10 mU) is incubated with 8 mM MOPS pH 7.0, 0.2 mM EDTA, 0.1 mg/ml poly(Glu, Tyr) 4:1, 10 mM MgAcetate and [γ-^33P-ATP] (Specific activity approx. 500 cpm/pmol, concentration as required). The reaction is initiated by the addition of Mg^2+ [γ-^33P-ATP]. After incubation for 40 minutes at room temperature, the reaction is stopped by the addition of 5 μl of a 3% phosphoric acid solution. 10 μl of the reaction is then spotted onto a Filtermat A and washed three times for 5 minutes in 75 mM phosphoric acid and once in methanol prior to drying and scintillation counting.

ZAP-70(h) = biological target: T1, ZAP-70(h) (Homo sapiens, UniProt P43403); assay: ZAP-70(h) kinase assay; settings: 3 μM; percent of control kinase activity
T1 sequence (P43403 1-619): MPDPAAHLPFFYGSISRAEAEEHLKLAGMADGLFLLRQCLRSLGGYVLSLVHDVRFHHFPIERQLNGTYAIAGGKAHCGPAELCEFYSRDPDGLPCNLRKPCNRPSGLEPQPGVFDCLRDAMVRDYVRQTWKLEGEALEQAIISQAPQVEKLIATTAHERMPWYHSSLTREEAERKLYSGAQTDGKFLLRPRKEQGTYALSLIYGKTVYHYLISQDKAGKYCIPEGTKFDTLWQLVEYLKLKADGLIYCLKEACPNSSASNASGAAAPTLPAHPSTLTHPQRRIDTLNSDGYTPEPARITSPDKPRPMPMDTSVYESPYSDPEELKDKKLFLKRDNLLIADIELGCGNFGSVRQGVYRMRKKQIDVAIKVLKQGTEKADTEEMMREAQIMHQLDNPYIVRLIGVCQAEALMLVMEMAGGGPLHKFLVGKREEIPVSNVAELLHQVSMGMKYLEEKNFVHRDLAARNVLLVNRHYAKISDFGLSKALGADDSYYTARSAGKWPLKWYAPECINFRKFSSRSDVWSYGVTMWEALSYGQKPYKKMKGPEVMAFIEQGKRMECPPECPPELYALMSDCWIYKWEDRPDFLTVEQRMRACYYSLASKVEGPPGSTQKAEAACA
Protocol: as §1, §2
as §4, with “ZAP-70 (h)” for “Yes(h)”, “50” for “8”, “Tris” for “MOPS”, “7.5, 0.1” for “7.0, 0.2”, “EGTA, 0.1 mM NaVanadate, 0.1% β-mercaptoethanol,” for “EDTA,”, “4:1, 10 mM MnCl2,” for “4:1,”

PDK1(h) = biological target: T2, PDK1(h) (Homo sapiens, UniProt O15530); assay: PDK1(h) kinase assay; settings: 3 μM; percent of control kinase activity
T2 sequence (O15530 1-556): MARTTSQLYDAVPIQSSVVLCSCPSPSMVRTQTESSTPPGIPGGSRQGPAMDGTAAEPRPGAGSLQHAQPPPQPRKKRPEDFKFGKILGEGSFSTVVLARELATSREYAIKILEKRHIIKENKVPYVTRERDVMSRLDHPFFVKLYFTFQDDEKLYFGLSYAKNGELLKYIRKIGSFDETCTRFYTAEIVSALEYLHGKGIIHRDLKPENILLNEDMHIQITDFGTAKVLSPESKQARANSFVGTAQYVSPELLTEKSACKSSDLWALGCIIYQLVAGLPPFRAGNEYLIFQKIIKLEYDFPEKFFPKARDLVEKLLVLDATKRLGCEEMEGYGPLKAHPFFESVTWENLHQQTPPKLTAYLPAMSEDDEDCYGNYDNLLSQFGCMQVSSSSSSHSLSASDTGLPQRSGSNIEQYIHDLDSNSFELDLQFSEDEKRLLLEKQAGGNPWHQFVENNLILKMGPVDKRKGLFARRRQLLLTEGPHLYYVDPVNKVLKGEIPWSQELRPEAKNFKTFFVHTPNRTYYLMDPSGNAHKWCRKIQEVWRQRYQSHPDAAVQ
Protocol: as §1, §2
as §3, with “PDK1” for “Rsk3”, “50” for “8”, “Tris” for “MOPS”, “7.5, 100” for “7.0, 0.2 mM EDTA, 30”, “NO:13) (PDKtide), 0.1% β-mercaptoethanol,” for “NO:11),”

Rsk3(h), sequence (Q15349 whole entry): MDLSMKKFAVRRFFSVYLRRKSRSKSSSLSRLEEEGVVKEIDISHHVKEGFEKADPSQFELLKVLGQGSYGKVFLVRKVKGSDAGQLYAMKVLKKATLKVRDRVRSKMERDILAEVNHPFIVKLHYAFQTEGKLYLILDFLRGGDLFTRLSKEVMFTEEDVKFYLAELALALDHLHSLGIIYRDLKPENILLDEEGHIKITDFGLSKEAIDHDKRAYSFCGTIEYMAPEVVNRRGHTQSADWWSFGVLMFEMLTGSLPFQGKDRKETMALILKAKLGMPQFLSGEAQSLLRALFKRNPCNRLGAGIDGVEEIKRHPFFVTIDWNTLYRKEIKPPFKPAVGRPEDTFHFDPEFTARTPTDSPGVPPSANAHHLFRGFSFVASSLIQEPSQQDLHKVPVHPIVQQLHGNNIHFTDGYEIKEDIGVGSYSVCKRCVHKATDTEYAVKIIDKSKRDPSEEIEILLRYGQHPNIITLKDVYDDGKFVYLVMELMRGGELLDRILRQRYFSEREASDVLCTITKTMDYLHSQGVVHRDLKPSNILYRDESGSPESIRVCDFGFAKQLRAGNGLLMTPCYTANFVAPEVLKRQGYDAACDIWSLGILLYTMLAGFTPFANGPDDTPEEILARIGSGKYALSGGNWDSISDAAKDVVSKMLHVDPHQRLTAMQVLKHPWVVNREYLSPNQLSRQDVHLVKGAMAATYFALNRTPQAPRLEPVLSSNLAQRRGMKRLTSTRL
Yes(h), sequence (P07947 whole entry): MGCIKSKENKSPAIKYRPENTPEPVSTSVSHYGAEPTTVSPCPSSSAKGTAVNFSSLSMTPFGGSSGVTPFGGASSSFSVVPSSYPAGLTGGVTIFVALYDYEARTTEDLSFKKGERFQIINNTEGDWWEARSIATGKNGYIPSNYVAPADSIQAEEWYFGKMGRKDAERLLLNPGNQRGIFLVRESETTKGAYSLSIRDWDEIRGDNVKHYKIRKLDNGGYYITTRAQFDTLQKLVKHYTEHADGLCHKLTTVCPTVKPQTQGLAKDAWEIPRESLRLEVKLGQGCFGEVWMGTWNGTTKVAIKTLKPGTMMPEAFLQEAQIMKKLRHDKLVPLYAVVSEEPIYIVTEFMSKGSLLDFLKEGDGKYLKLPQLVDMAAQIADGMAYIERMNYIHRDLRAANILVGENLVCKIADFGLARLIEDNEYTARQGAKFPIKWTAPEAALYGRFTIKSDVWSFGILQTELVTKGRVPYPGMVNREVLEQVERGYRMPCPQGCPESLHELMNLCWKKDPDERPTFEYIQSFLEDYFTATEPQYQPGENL

COc1ccc2cc(-c3n[nH]c4ccc(-c5n[nH]c(CN6CCOCC6)n5)cc34)ccc2c1 [CC001, 3-(6-Methoxynaphthalen-2-yl)-5-(5-Morpholin-4-Ylmethyl-1H-[1,2,4]Triazol-3-yl)-1H-Indazole]
Inhibitory activity (% of control), Rsk3(h) (Rsk3(h)): 4 % of control
Inhibitory activity (% of control), Yes(h) (Yes(h)): 2 % of control
Inhibitory activity (% of control), ZAP-70(h) (ZAP-70(h)): 105 % of control
Inhibitory activity (% of control), PDK1(h) (PDK1(h)): 59 % of control

CC(C)Cc1nc(-c2ccc3[nH]nc(-c4ccc5cc(OCCN6CCCC6)ccc5c4)c3c2)n[nH]1 [CC002, 5-(5-Isobutyl-1H-[1,2,4]Triazol-3-yl)-3-[6-(2-Pyrrolidin-1-yl-Ethoxy)-Naphthalen-2-yl]-1H-Indazole]
Inhibitory activity (% of control), Rsk3(h) (Rsk3(h)): 5 % of control
Inhibitory activity (% of control), Yes(h) (Yes(h)): −3 % of control
Inhibitory activity (% of control), ZAP-70(h) (ZAP-70(h)): 40 % of control
Inhibitory activity (% of control), PDK1(h) (PDK1(h)): 58 % of control

CC(C)(C)Cc1nc(-c2ccc3[nH]nc(-c4ccc5cc(OCc6ccccn6)ccc5c4)c3c2)n[nH]1 [CC004, 5-[5-(2,2-Dimethyl-propyl)-1H-[1,2,4]triazol-3-yl]-3-[6-(pyridine-2-ylmethoxy)-naphthalen-2-yl]-1H-indazole]
Inhibitory activity (% of control), Rsk3(h) (Rsk3(h)): 43 % of control
Inhibitory activity (% of control), Yes(h) (Yes(h)): 24 % of control
inhibitory activity against Yes, in words (Yes(h); summary of Table 2): somewhat less inhibitory activity
Inhibitory activity (% of control), ZAP-70(h) (ZAP-70(h)): 68 % of control
Inhibitory activity (% of control), PDK1(h) (PDK1(h)): 70 % of control

CCN1CCC[C@H]1COc1ccc2cc(-c3n[nH]c4ccc(-c5nc(CC(C)(C)C)n[nH]5)cc34)ccc2c1 [CC005, 2-[((2s)-1-ethylpyrrolidin-2-yl)methoxy]-6-{5-[3-(2,2-Dimethylpropyl)(1H-1,2,4,-triazol-5-yl)](1H-indazol-3-yl)}naphthalene]
Inhibitory activity (% of control), Rsk3(h) (Rsk3(h)): 4 % of control
Inhibitory activity (% of control), Yes(h) (Yes(h)): 0 % of control
Inhibitory activity (% of control), ZAP-70(h) (ZAP-70(h)): 26 % of control
Inhibitory activity (% of control), PDK1(h) (PDK1(h)): 59 % of control

Fc1ccc(-c2n[nH]c3ccc(-c4n[nH]c(C5CCCC5)n4)cc23)cc1 [CC006, 5-(5-Cyclopentyl-1H-[1,2,4]triazol-3-yl)-3-(4-fluoro-phenyl)-1H-indazole, reference compound]
Inhibitory activity (% of control), Rsk3(h) (Rsk3(h)): 39 % of control
Inhibitory activity (% of control), Yes(h) (Yes(h)): 57 % of control
Inhibitory activity (% of control), ZAP-70(h) (ZAP-70(h)): 77 % of control
Inhibitory activity (% of control), PDK1(h) (PDK1(h)): 43 % of control

O=C(NC1CCCC1)c1cccc(-c2n[nH]c3ccc(-c4nc[nH]n4)cc23)c1 [CC007, 3-(5-(1H-1,2,4-triazol-3-yl)(1H-indazol-3-yl))phenyl-N-cyclopentylcarboxamide, reference compound]
Inhibitory activity (% of control), Rsk3(h) (Rsk3(h)): 38 % of control
Inhibitory activity (% of control), Yes(h) (Yes(h)): 50 % of control
Inhibitory activity (% of control), ZAP-70(h) (ZAP-70(h)): 87 % of control
Inhibitory activity (% of control), PDK1(h) (PDK1(h)): 97 % of control
